Assay results reported in patent US20150376196A1, “4-SUBSTITUTED PYRROLO- AND PYRAZOLO-DIAZEPINES” (BAYER PHARMA AKTIENGESELLSCHAFT, priority 2013, published 2015).
Read-outs that look alike come from different tables or passages of the source.

Columns and labels:
MDA-MB-231 cells = assay: Cell proliferation assay (alamarBlue), MDA-MB-231; type: cell-based; settings: Homo sapiens, Breast, 96 hours, inhibition of cell proliferation
Experimental: (§1) In accordance with the invention, the ability of the substances to inhibit cell proliferation was determined Cell viability was determined by means of the alamarBlue® reagent (Invitrogen) in a Victor X3 Multilabel Reader (Perkin Elmer). The excitation wavelength was 530 nm and the emission wavelength […].
(§2) The MDA-MB-231 cells (DSMZ, ACC 732) were sown at a concentration of 4000 cells/well in 100 μl of growth medium (DMEM/Ham's F12 medium, 10% FCS) on 96-well microtitre plates. After overnight incubation at 37° C., the fluorescence values (CI values) were determined. Then the plates were treated with various substance dilutions (1E-5 M, 3E-6 M, 1E-6 M, 3E-7 M, 1E-7 M, 3E-8 M, 1E-8 M) and incubated at 37° C. for 72 (MV-4-11, LOX-IMVI cells), 96 (MOLM-13, B16F10, […] cells), 120 (MOLP-8, KMS-12-PE cells) or 168 (LAPC-4 cells) hours. Subsequently, the fluorescence values were determined (CO values). For the data analysis, the CI values were subtracted from the CO values and the results were compared between cells which had been treated with various dilutions of the substance or only with buffer solution. The ICso values (substance concentration needed for 50% inhibition of cell proliferation) were calculated therefrom.
(§3) The substances were tested in the cell lines in Table 1, which represent the indications specified by way of example: […]

LAPC-4 cells = assay: Cell proliferation assay (alamarBlue), LAPC-4; type: cell-based; settings: Homo sapiens, LAPC4, Prostate, 1 nM methyltrienolone, 168 hours, inhibition of cell proliferation
Experimental: as §1
The LAPC-4 cells (ATCC, PTA-1441TM) were sown at a concentration of 4000 cells/well in 100 μl of growth medium (RPMI1640, 2 mM L-glutamine, 10% cFCS) on 96-well microtitre plates. One day later, the LAPC-4 cells were treated with 1 nM methyltrienolone and various substance dilutions.
as §2, §3

BRD4 (BD1) = molecular target: T1, BRD4 (BD1) (Homo sapiens, UniProt O60885); assay: Binding assay BRD4/acetylated peptide H4 (TR-FRET protein-protein interaction assay)
T1 construct: amino acids 67-152, longer constructs also being possible, preferably amino acids 44-168; made in house; host or cells: E. coli
Text: To assess the BRD4 binding strength of the substances described in this application, the ability thereof to inhibit the interaction between BRD4 (BD1) and acetylated histone H4 in a dose-dependent manner was quantified.
For this purpose, a time-resolved fluorescence resonance energy transfer (TR-FRET) assay was used, which measures the binding between N-terminally His6-tagged BRD4 (BD1) (amino acids 67-152, longer constructs also being possible, preferably amino acids 44-168) and a synthetic acetylated histone H4 (Ac-H4) peptide with sequence GRGK(Ac)GGK(Ac)GLGK(Ac)GGAK(Ac)RHGSGSK-biotin. The recombinant BRD4 protein produced in-house according to Filippakopoulos et al., Nature, 2010, 468:1119-1123 was expressed in E. coli and purified by means of (Ni-NTA) affinity and (Sephadex G-75) size exclusion chromatography. The Ac-H4 peptide can be purchased, for example, from Biosyntan (Berlin, Germany).
In the assay, typically 11 different concentrations of each substance (0.1 nM, 0.33 nM, 1.1 nM, 3.8 nM, 13 nM, 44 nM, 0.15 μM, 0.51 μM, 1.7 μM, 5.9 μM and 20 μM) were analysed as duplicates on the same microtitre plate. For this purpose, 100-fold concentrated solutions in DMSO were prepared by serial dilutions (1:3.4) of a 2 mM stock solution into a clear, 384-well microtitre plate (Greiner Bio-One, Frickenhausen, Germany). From this, 50 nl were transferred into a black test plate (Greiner Bio-One, Frickenhausen, Germany). The test was started by the addition of 2 μl of a 2.5-fold concentrated BRD4 solution (final concentration typically 10 nM in the 5 μl of reaction volume) in aqueous assay buffer [50 mM HEPES pH 7.5, 50 mM sodium chloride (NaCl), 0.25 mM CHAPS and 0.05% serum albumin (BSA)] to the substances in the test plate. This was followed by a 10-minute incubation step at 22° C. for the pre-equilibration of putative complexes between BRD4 and the substances.
The mixture was then incubated in the dark at 22° C. for one hour and then at 4° C. for at least 3 hours and for no longer than overnight. The formation of BRD4/Ac-H4 complexes was determined by the measurement of the resonance energy transfer from the streptavidin-Eu cryptate to the anti-6His-XL665 antibody present in the reaction. For this purpose, the fluorescence emission was measured at 620 nm and 665 nm after excitation at 330-350 nm in a TR-FRET measuring instrument, for example a Rubystar or Pherastar (both from BMG Lab Technologies, Offenburg, Germany) or a Viewlux (Perkin-Elmer). The ratio of the emissions at 665 nm and at 622 nm was taken as an indicator of the amount of BRD4/Ac-H4 complexes formed.
The data (ratios) obtained were normalized, with 0% inhibition corresponding to the mean from the measurements for a set of controls (typically 32 data points) in which all the reagents were present. In these, in place of test substances, 50 nl of DMSO (100%) were used Inhibition of 100% corresponded to the mean from the measurements for a set of controls (typically 32 data points) in which all the reagents except BRD4 were present. The IC50 was determined by regression analysis based on a 4-parameter equation (minimum, maximum, IC50, Hill; Y=max+(min−max)/(1+(X/IC50)^Hill)).

MOLM-13 cells = assay: Cell proliferation assay (alamarBlue), MOLM-13; type: cell-based; settings: Homo sapiens, Leukaemia, 96 hours, inhibition of cell proliferation
Experimental: as §1
The MOLM-13 cells (DSMZ, ACC 554) were sown at a concentration of 4000 cells/well in 100 μl of growth medium (RPMI1640, 10% FCS) on 96-well microtitre plates.
as §2, §3

B16F10 cells = assay: Cell proliferation assay (alamarBlue), B16F10; type: cell-based; settings: Mus musculus, B16-F10, Melanoma (BRAF wild-type), 96 hours, inhibition of cell proliferation
Experimental: as §1
The B16F10 cells (ATCC, CRL-6475) were sown at a concentration of 300-500 cells/well in 100 μl of growth medium (DMEM with phenol red, 10% FCS) on 96-well microtitre plates.
as §2, §3

MOLP-8 cells = assay: Cell proliferation assay (alamarBlue), MOLP-8; type: cell-based; settings: Homo sapiens, Multiple myeloma, 120 hours, inhibition of cell proliferation
Experimental: as §1
The MOLP-8 cells (DSMZ, ACC 569) were sown at a concentration of 4000 cells/well in 100 μl of growth medium (RPMI1640, 20% FCS) on 96-well microtitre plates.
as §2, §3

[1] = BRD4 (BD1) / acetylated histone H4 peptide, TR-FRET, read-out: IC50 (BRD4)

Structure (SMILES)	IC50 (MDA-MB-231 cells)	IC50 (LAPC-4 cells)	IC50 (BRD4 (BD1))	IC50 (MOLM-13 cells)	IC50 (B16F10 cells)	IC50 (MOLP-8 cells)	IC50 (BRD4 (BD1); [1])
COC(=O)C[C@@H]1N=C(c2ccc(Cl)cc2)c2c(cn(C)c2C)-n2c(C)nnc21 [Example 1]	90 nM	50 nM	10 nM	130 nM	80 nM	50 nM	
COC(=O)C[C@@H]1N=C(c2ccccc2)c2c(cn(C)c2C)-n2c(C)nnc21 [Example 2, 2-(4S)-(1,7,8-Trimethyl-6-phenyl-4,8-dihydropyrrolo[3,4f][1,2,4]triazolo[4,3-a][1,4]diazepin-4-yl)acetic acid methyl ester]	90 nM	30 nM	10 nM	330 nM	80 nM		
Cc1c2c(cn1C)-n1c(C)nnc1[C@H](CC(=O)OC(C)(C)C)N=C2c1ccc(Cl)cc1 [Example 3]		100 nM		210 nM	190 nM	190 nM	30 nM
Cc1c2c(cn1C)-n1c(C)nnc1[C@H](CC(=O)N1CC(F)C1)N=C2c1ccc(Cl)cc1 [Example 5, (−)-2-[(4S)-6-(4-Chlorophenyl)-1,7,8-trimethyl-4,8-dihydropyrrolo[3,4f][1,2,4]triazolo [4,3-a][1,4]diazepin-4-yl]-1-(3-fluoroazetidin-1-yl)ethan-1-one]		370 nM		530 nM	580 nM	370 nM	70 nM
COC(=O)C[C@@H]1N=C(c2ccc(Cl)cc2)c2nn(C)cc2-n2c(C)nnc21 [Example 6, 2-[(4S)-6-(4-Chlorophenyl)-1,8-dimethyl-4,8-dihydropyrazolo[3,4-f][1,2,4]triazolo[4,3-a][1,4]diazepin-4-yl]acetic acid methyl ester]		250 nM	140 nM	450 nM	550 nM	450 nM	
COC(=O)C[C@@H]1N=C(c2ccc(Cl)cc2)c2c(cnn2C)-n2c(C)nnc21 [Example 7, 2-[(4S)-6-(4-Chlorophenyl)-1,7-dimethyl-4,7-dihydropyrazolo[3,4-f][1,2,4]triazolo[4,3-a][1,4]diazepin-4-yl]acetic acid methyl ester]			230 nM	740 nM		450 nM	
Cc1c2c(cn1C)-n1c(C)nnc1[C@H](CC(=O)N1CCS(=O)(=O)CC1)N=C2c1ccc(Cl)cc1 [Example 8, (−)-2-[(4S)-6-(4-Chlorophenyl)-1,7,8-trimethyl-4,8-dihydropyrrolo[3,4f][1,2,4]triazolo[4,3-a][1,4]diazepin-4-yl]-1-(1,1-dioxidothiomorpholino)ethan-1-one]		360 nM		560 nM	670 nM	440 nM	100 nM
Cc1c2c(cn1C)-n1c(C)nnc1[C@H](CC(=O)N(C)CC1(C)COC1)N=C2c1ccc(Cl)cc1 [Example 11, (−)-2-[(4S)-6-(4-Chlorophenyl)-1,7,8-trimethyl-4,8-dihydropyrrolo[3,4f][1,2,4]triazolo[4,3-a][1,4]diazepin-4-yl]-N-methyl-N-[(3-methyloxetan-3-yl)methyl]acetamide]		810 nM		1990 nM	1400 nM		220 nM
Cc1c2c(cn1C)-n1c(C)nnc1[C@H](CC(=O)N1CCC(=O)C1)N=C2c1ccc(Cl)cc1 [Example 12]		220 nM		480 nM	600 nM		110 nM
Cc1c2c(cn1C)-n1c(C)nnc1[C@H](CC(=O)Nc1ccc3c(c1)CC(=O)N3)N=C2c1ccc(Cl)cc1 [Example 13, 2-[(4S)-6-(4-Chlorophenyl)-1,7,8-trimethyl-4,8-dihydropyrrolo[3,4-f][1,2,4]triazolo[4,3-a][1,4]diazepin-4-yl]-N-(2-oxo-2,3-dihydro-1H-indol-5-yl)acetamide]		90 nM		190 nM	330 nM	220 nM	40 nM
Cc1nnc2n1-c1cn(C)nc1C(c1ccc(Cl)cc1)=NC2CC(=O)N1CCS(=O)(=O)CC1 (centres unmarked) [Example 14, 2-[6-(4-Chlorophenyl)-1,8-dimethyl-4,8-dihydropyrazolo[3,4-f][1,2,4]triazolo[4,3-a][1,4]diazepin-4-yl]-1-(1,1-dioxidothiomorpholin-4-yl)ethanone]				3460 nM		4000 nM	640 nM
Cc1noc(C[C@@H]2N=C(c3ccc(Cl)cc3)c3c(cn(C)c3C)-n3c(C)nnc32)n1 [Example 26, (4S)-6-(4-Chlorophenyl)-1,7,8-trimethyl-4-[(3-methyl-1,2,4-oxadiazol-5-yl)methyl]-4,8-dihydropyrrolo[3,4-f][1,2,4]triazolo[4,3-a][1,4]diazepine]				80 nM		50 nM	20 nM
CCc1noc(C[C@@H]2N=C(c3ccc(Cl)cc3)c3c(cn(C)c3C)-n3c(C)nnc32)n1 [Example 28, (4S)-6-(4-Chlorophenyl)-1,7,8-trimethyl-4-[(3-ethyl-1,2,4-oxadiazol-5-yl)methyl]-4,8-dihydropyrrolo[3,4-f][1,2,4]triazolo[4,3-a][1,4]diazepine]				70 nM		40 nM	30 nM
Cc1c2c(cn1C)-n1c(C)nnc1[C@H](Cc1nc(C(C)C)no1)N=C2c1ccc(Cl)cc1 [Example 30, (4S)-6-(4-Chlorophenyl)-1,7,8-trimethyl-4-{[3-(propan-2-yl)-1,2,4-oxadiazol-5-yl]methyl}-4,8-dihydropyrrolo[3,4-f][1,2,4]triazolo[4,3-a][1,4]diazepine]				70 nM		50 nM	30 nM
